The source of these data is ChEMBL document CHEMBL3045461, “Biological evaluation of synthetic analogues of curcumin: chloro-substituted-2-hydroxychalcones as potential inhibitors of tubulin polymerization and cell proliferation” (Med Chem Res, 2011).

Each structure is given as a SMILES string. Active and inactive are the calls of the source. No cut-off for these calls is given here.

Assay [1] addresses Tubulin alpha 4a (Ovis aries) (UniProt C5ISA2). Kind of assay: (§1) Inhibition of Ovis aries (sheep) brain tubulin polymerization assessed as microtubule assembly after 15 min by measuring turbidity based spectroscopic analysis.
Assay [2] concerns the target T1, Tubulin alpha 4a (Ovis aries, UniProt C5ISA2). The assay is described as §1.
The target of assay [3] is Tubulin alpha 4a (Ovis aries) (UniProt C5ISA2). Briefly: Inhibition of Ovis aries (sheep) brain tubulin polymerization assessed as reduction of length of microtubule filament at 20 to 30 uM after 15 min by transmission electron microscopy analysis.
The test system of another assay is SK-N-MC. Briefly: Cytotoxicity against Homo sapiens (human) SK-N-MC cells after 72 hr by MTT assay. The class given is functional, cell-based.
Assay [4] concerns K562. Kind of assay: Cytotoxicity against Homo sapiens (human) K562 cells after 72 hr by MTT assay. Format: functional, cell-based. The settings on record: K562, 72 h.
The target in assay [5] is Tubulin alpha 4a (Ovis aries) (UniProt C5ISA2). Briefly: (§2) Inhibition of Ovis aries (sheep) brain tubulin polymerization assessed as microtubule assembly after 30 min by CD spectra analysis.
Assay [6] deals with T1, Tubulin alpha 4a. The assay is described as §2.
In assay [7] the target is Tubulin alpha 4a (Ovis aries) (UniProt C5ISA2). Kind of assay: (§3) Binding affinity to Ovis aries (sheep) brain tubulin assessed as intrinsic tryptophan fluorescence after 30 min by fluorescence spectroscopic analysis. The class given is tissue-based.
The target of assay [8] is T1, Tubulin alpha 4a. The description is as §3. The class given is tissue-based.
Assay [9] deals with Tubulin alpha 4a (Ovis aries) (UniProt C5ISA2). Briefly: Inhibition of Ovis aries (sheep) brain tubulin polymerization assessed as microtubule assembly at 30 uM after 30 min by CD spectra analysis.
Assay [10] has the same target. Briefly: Binding affinity to Ovis aries (sheep) brain tubulin assessed as increase in fluorescent intensity at 1:1 compound protein ratio after 30 min by fluorescence spectroscopic analysis.
Assay [11] has the same target. Briefly: Binding affinity to Ovis aries (sheep) brain tubulin assessed as […] at 25 to 50 uM after 30 min by far-UV CD spectrum analysis.
For the next assay, the system named is HeLa. Kind of assay: Antiproliferative activity against Homo sapiens (human) HeLa cells. The class given is functional, cell-based.
The test system of the next assay is MCF7. Briefly: Antiproliferative activity against Homo sapiens (human) MCF7 cells. Format: functional, cell-based.
Assay [12] has as its system K562. Briefly: Cytotoxicity against Homo sapiens (human) K562 cells. The class given is functional, cell-based.

Chain of Tubulin alpha 4a (Ovis aries) (C5ISA2 1-448): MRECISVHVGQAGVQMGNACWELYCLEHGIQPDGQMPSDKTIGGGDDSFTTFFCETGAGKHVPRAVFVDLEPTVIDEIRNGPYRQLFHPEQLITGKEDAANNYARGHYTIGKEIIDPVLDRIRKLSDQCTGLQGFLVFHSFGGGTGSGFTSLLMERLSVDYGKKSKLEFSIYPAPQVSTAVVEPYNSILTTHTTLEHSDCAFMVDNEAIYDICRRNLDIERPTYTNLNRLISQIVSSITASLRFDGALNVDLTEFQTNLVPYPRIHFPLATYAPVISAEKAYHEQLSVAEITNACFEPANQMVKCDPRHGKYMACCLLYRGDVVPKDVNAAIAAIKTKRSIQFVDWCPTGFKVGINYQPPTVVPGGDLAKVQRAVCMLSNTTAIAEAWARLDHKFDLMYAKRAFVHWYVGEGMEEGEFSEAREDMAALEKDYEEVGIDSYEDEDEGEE
T1 sequence (C5ISA2 1-448): as above

For the compound `O=C(/C=C/c1cccc(Cl)c1)c1cc(Cl)ccc1O`, the inhibition result in [1] was “Dose-dependent effect”; in assay [5], “Dose-dependent effect”; in assay [9], 89%. The IC50 at Tubulin alpha 4a [2] stood at 19.6 µM; in the assay on SK-N-MC, 47.8 µM; with K562 [4], 41.1 µM; on Tubulin alpha 4a [6], 19.6 µM. For the same compound, the inhibition entry in assay [3] was “Active”. Besides, the Activity result in [7] was “Dose-dependent effect”. In addition, the Kd at Tubulin alpha 4a [8] came to 3.7 µM. The result in assay [10] and in [11] was Active.
As for `O=C(/C=C/c1ccc(Cl)cc1)c1cc(Cl)ccc1O`, the inhibition result in assay [1] is “Dose-dependent effect”. For the same compound, the IC50 at Tubulin alpha 4a [2] is 20.3 µM; in the assay with SK-N-MC, 45.8 µM; in the assay with K562 [4], 38.7 µM.
On to `O=C(/C=C/c1ccc(Cl)cc1Cl)c1cc(Cl)ccc1O`, for which the IC50 is greater than 50 µM at Tubulin alpha 4a [2], 69.8 µM in the assay on SK-N-MC and 65.6 µM with K562 [4].
Take `COc1cc(/C=C/C(=O)CC(=O)/C=C/c2ccc(O)c(OC)c2)ccc1O` [CURCUMIN]: the IC50 at Tubulin alpha 4a [2] was found to be 26.6 µM; in the assay on SK-N-MC, 57.4 µM; with K562 [4] it was 49.2 µM; with HeLa, 13.8 µM; in the assay on MCF7 it was 12 µM; in the assay on K562 [12], 54.3 µM.
For `O=C(/C=C/c1ccccc1Cl)c1cc(Cl)ccc1O`, the inhibition entry in assay [1] is “Dose-dependent effect”. Further, the IC50 is 21.4 µM on Tubulin alpha 4a [2], 51.3 µM in the assay on SK-N-MC and 41.8 µM in the assay on K562 [4].
For the compound `O=C(/C=C/c1ccccc1)c1ccccc1O` [2'-HYDROXYCHALCONE], the IC50 at Tubulin alpha 4a [2] was determined as 49.3 µM; in the assay on SK-N-MC, 61.2 µM; with K562 [4] it was 60.7 µM.
